Laboratory results from PubChem BioAssay (NCI).
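Five compound concentrations were applied to cells in 96-well plates for 48 hours; endpoints were derived by simple linear interpolation of the resulting dose-response curve. The concentration for full growth arrest is given as TGI.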

Key:
Experiment in all cases: NCI-60 cell line screen, 48 h
[1] = test system: A549 NSCLC
[2] = test system: MOLT-4 leukemia
[3] = test system: NCI-H23 lung
[4] = test system: DMS 114 small cell lung
[5] = test system: SK-MEL-2 melanoma
[6] = test system: SW-620 colon
[7] = test system: HCC-2998 colon
[8] = test system: SNB-75 CNS
[9] = test system: NCI-H226 lung
[10] = test system: SK-MEL-28 melanoma
[11] = test system: KM20L2 colon
[12] = test system: KM12 colon
[13] = test system: CAKI-1 renal
[14] = test system: TK-10 renal
[15] = test system: HOP-92 NSCLC
[16] = test system: HOP-62 NSCLC
[17] = test system: HL-60(TB) leukemia
[18] = test system: HCT-15 colon
[19] = test system: M19-MEL melanoma
[20] = test system: M14 melanoma
[21] = test system: K-562 leukemia
[22] = test system: OVCAR-5 ovarian
[23] = test system: LXFL 529 NSCLC
[24] = test system: UACC-257 melanoma
[25] = test system: OVCAR-3 ovarian
[26] = test system: SF-268 CNS
[27] = test system: UO-31 renal
[28] = test system: UACC-62 melanoma
[29] = test system: SNB-78 CNS
[30] = test system: U251 CNS
[31] = test system: RXF-631 renal
[32] = test system: OVCAR-8 ovarian
[33] = test system: NCI-H460 lung
[34] = test system: A498 renal
[35] = test system: ACHN renal
[36] = test system: COLO 205 colon
[37] = test system: DLD-1 colon
[38] = test system: NCI-H522 lung
[39] = test system: IGROV1 ovarian
[40] = test system: HCT-116 colon
[41] = test system: RPMI-8226 leukemia
[42] = test system: SF-539 CNS
[43] = test system: HT29 colon
[44] = test system: LOX IMVI melanoma
[45] = test system: XF 498 CNS
[46] = test system: SF-295 CNS
[47] = test system: EKVX NSCLC
[48] = test system: 786-0 renal
[49] = test system: SNB-19 CNS
[50] = test system: CCRF-CEM leukemia
[51] = test system: MALME-3M melanoma
[52] = test system: SN12C renal
[53] = test system: OVCAR-4 ovarian
[54] = test system: RXF 393 renal
[55] = test system: SK-MEL-5 melanoma
[56] = test system: SR leukemia
[57] = test system: DMS 273 small cell lung

CCOC(=O)C12CCSC1C1(C#N)C(C#N)=CC2(N=P(c2ccccc2)(c2ccccc2)c2ccccc2)n2c(=O)n(-c3ccccc3)c(=O)n21 (stereo not drawn)
TGI [1]: > 100 µM | TGI [2]: 88.1 µM | TGI [3]: > 100 µM | TGI [4]: 96.6 µM | TGI [5]: > 100 µM | TGI [6]: > 100 µM | TGI [7]: > 100 µM | TGI [8]: > 100 µM | TGI [9]: > 100 µM | TGI [10]: 73.3 µM | TGI [11]: > 100 µM | TGI [12]: > 100 µM | TGI [13]: > 100 µM | TGI [14]: > 100 µM | TGI [15]: 60.9 µM | TGI [16]: > 100 µM | TGI [17]: 71.5 µM | TGI [18]: > 100 µM | TGI [19]: 98.5 µM | TGI [20]: > 100 µM | TGI [21]: > 100 µM | TGI [22]: > 100 µM | TGI [23]: > 100 µM | TGI [24]: 94.3 µM | TGI [25]: 89.8 µM | TGI [26]: > 100 µM | TGI [27]: 77.2 µM | TGI [28]: 77.9 µM | TGI [29]: > 100 µM | TGI [30]: > 100 µM | TGI [31]: > 100 µM | TGI [32]: > 100 µM | TGI [33]: > 100 µM | TGI [34]: > 100 µM | TGI [35]: > 100 µM | TGI [36]: > 100 µM | TGI [37]: > 100 µM | TGI [38]: 87.2 µM | TGI [39]: > 100 µM | TGI [40]: > 100 µM | TGI [41]: 73.4 µM | TGI [42]: > 100 µM | TGI [43]: > 100 µM | TGI [44]: > 100 µM | TGI [45]: 78.3 µM | TGI [46]: > 100 µM | TGI [47]: > 100 µM | TGI [48]: > 100 µM | TGI [49]: > 100 µM | TGI [50]: > 100 µM | TGI [51]: > 100 µM | TGI [52]: > 100 µM | TGI [53]: 79.8 µM | TGI [54]: > 100 µM | TGI [55]: 55.4 µM

Nc1ccc2ncc(Nc3ccc(F)cc3)nc2c1
TGI [1]: > 100 µM | TGI [2]: > 100 µM | TGI [3]: > 100 µM | TGI [4]: > 100 µM | TGI [6]: > 100 µM | TGI [7]: > 100 µM | TGI [8]: > 100 µM | TGI [9]: > 100 µM | TGI [10]: > 100 µM | TGI [12]: > 100 µM | TGI [13]: > 100 µM | TGI [14]: > 100 µM | TGI [16]: > 100 µM | TGI [17]: > 100 µM | TGI [18]: > 100 µM | TGI [19]: > 100 µM | TGI [20]: > 100 µM | TGI [21]: > 100 µM | TGI [22]: > 100 µM | TGI [24]: > 100 µM | TGI [25]: > 100 µM | TGI [26]: > 100 µM | TGI [56]: > 100 µM | TGI [27]: > 100 µM | TGI [29]: > 100 µM | TGI [30]: > 100 µM | TGI [32]: > 100 µM | TGI [33]: > 100 µM | TGI [35]: > 100 µM | TGI [36]: > 100 µM | TGI [37]: > 100 µM | TGI [38]: > 100 µM | TGI [40]: > 100 µM | TGI [41]: > 100 µM | TGI [42]: > 100 µM | TGI [43]: > 100 µM | TGI [44]: > 100 µM | TGI [57]: > 100 µM | TGI [45]: > 100 µM | TGI [46]: > 100 µM | TGI [47]: > 100 µM | TGI [48]: > 100 µM | TGI [49]: > 100 µM | TGI [50]: > 100 µM | TGI [51]: > 100 µM | TGI [52]: > 100 µM | TGI [53]: > 100 µM | TGI [55]: > 100 µM
